Literature values in US20040006111A1, “Transmucosal delivery of proton pump inhibitors” (priority 2002, published 2004).

[1] = omeprazole buccal adhesive tablets (sodium alginate, HPMC, magnesium oxide, croscarmellose sodium), absorption through the buccal mucosa

## COc1ccc2[nH]c([S+]([O-])Cc3ncc(C)c(OC)c3C)nc2c1 (stereo not drawn) [omeprazole]
Omeprazole buccal adhesive tablet formulation of Choi et al.
  bioavailability: low
[1]
  peak plasma concentration: 370 ng/mL
  time to generate peak plasma concentration: 45 min
